In PubChem BioAssay (NCI):
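Interpolation was linear, between the two tested concentrations surrounding the appropriate level; five concentrations were tested over 48 hours in 96-well plates. Here, GI50 denotes the concentration required for 50% inhibition of growth. TGI denotes the concentration required for complete inhibition of growth.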

How the values were obtained:
Test in all cases: NCI-60 cell line screen, 48 h
SK-MEL-28 melanoma = test system: SK-MEL-28 melanoma
SF-539 CNS = test system: SF-539 CNS
SW-620 colon = test system: SW-620 colon
786-0 renal = test system: 786-0 renal
HT29 colon = test system: HT29 colon
SNB-75 CNS = test system: SNB-75 CNS
NCI-H23 lung = test system: NCI-H23 lung
SF-268 CNS = test system: SF-268 CNS
SK-MEL-5 melanoma = test system: SK-MEL-5 melanoma
BT-549 breast = test system: BT-549 breast
UO-31 renal = test system: UO-31 renal
HOP-62 NSCLC = test system: HOP-62 NSCLC
M14 melanoma = test system: M14 melanoma
HCT-116 colon = test system: HCT-116 colon
KM12 colon = test system: KM12 colon
SF-295 CNS = test system: SF-295 CNS
IGROV1 ovarian = test system: IGROV1 ovarian
A549 NSCLC = test system: A549 NSCLC
MOLT-4 leukemia = test system: MOLT-4 leukemia
RXF 393 renal = test system: RXF 393 renal
OVCAR-5 ovarian = test system: OVCAR-5 ovarian
TK-10 renal = test system: TK-10 renal
A498 renal = test system: A498 renal
MDA-MB-435 = test system: MDA-MB-435
OVCAR-4 ovarian = test system: OVCAR-4 ovarian
RPMI-8226 leukemia = test system: RPMI-8226 leukemia
SK-OV-3 ovarian = test system: SK-OV-3 ovarian
EKVX NSCLC = test system: EKVX NSCLC
OVCAR-8 ovarian = test system: OVCAR-8 ovarian
SK-MEL-2 melanoma = test system: SK-MEL-2 melanoma
SN12C renal = test system: SN12C renal
U251 CNS = test system: U251 CNS
MDA-MB-231 breast = test system: MDA-MB-231 breast
HCT-15 colon = test system: HCT-15 colon
NCI/ADR-RES ovarian = test system: NCI/ADR-RES ovarian
MALME-3M melanoma = test system: MALME-3M melanoma
NCI-H226 lung = test system: NCI-H226 lung
CAKI-1 renal = test system: CAKI-1 renal
SNB-19 CNS = test system: SNB-19 CNS
NCI-H522 lung = test system: NCI-H522 lung
PC-3 prostate = test system: PC-3 prostate
HOP-92 NSCLC = test system: HOP-92 NSCLC
LOX IMVI melanoma = test system: LOX IMVI melanoma
K-562 leukemia = test system: K-562 leukemia
HCC-2998 colon = test system: HCC-2998 colon
OVCAR-3 ovarian = test system: OVCAR-3 ovarian
NCI-H460 lung = test system: NCI-H460 lung
ACHN renal = test system: ACHN renal
COLO 205 colon = test system: COLO 205 colon
MCF7 breast = test system: MCF7 breast
HL-60(TB) leukemia = test system: HL-60(TB) leukemia
T-47D breast = test system: T-47D breast
DU-145 prostate = test system: DU-145 prostate
UACC-62 melanoma = test system: UACC-62 melanoma
HS 578T breast = test system: HS 578T breast
SR leukemia = test system: SR leukemia

COC(=O)COc1ccccc1/C=C1/N=C(c2ccccc2)N(c2c(C)n(C)n(-c3ccccc3)c2=O)C1=O
GI50 (SK-MEL-28 melanoma): > 100 µM | TGI (SK-MEL-28 melanoma): > 100 µM | GI50 (SF-539 CNS): > 100 µM | TGI (SF-539 CNS): > 100 µM | GI50 (SW-620 colon): > 100 µM | TGI (SW-620 colon): > 100 µM | GI50 (786-0 renal): > 100 µM | TGI (786-0 renal): > 100 µM | GI50 (HT29 colon): > 100 µM | TGI (HT29 colon): > 100 µM | GI50 (SNB-75 CNS): > 100 µM | TGI (SNB-75 CNS): > 100 µM | GI50 (NCI-H23 lung): > 100 µM | TGI (NCI-H23 lung): > 100 µM | GI50 (SF-268 CNS): > 100 µM | TGI (SF-268 CNS): > 100 µM | GI50 (SK-MEL-5 melanoma): > 100 µM | TGI (SK-MEL-5 melanoma): > 100 µM | GI50 (BT-549 breast): 40.7 µM | TGI (BT-549 breast): > 100 µM | GI50 (UO-31 renal): > 100 µM | TGI (UO-31 renal): > 100 µM | GI50 (HOP-62 NSCLC): > 100 µM | TGI (HOP-62 NSCLC): > 100 µM | GI50 (M14 melanoma): > 100 µM | TGI (M14 melanoma): > 100 µM | GI50 (HCT-116 colon): > 100 µM | TGI (HCT-116 colon): > 100 µM | GI50 (KM12 colon): 79.6 µM | TGI (KM12 colon): > 100 µM | GI50 (SF-295 CNS): > 100 µM | TGI (SF-295 CNS): > 100 µM | GI50 (IGROV1 ovarian): 46.1 µM | TGI (IGROV1 ovarian): > 100 µM | GI50 (A549 NSCLC): > 100 µM | TGI (A549 NSCLC): > 100 µM | GI50 (MOLT-4 leukemia): > 100 µM | TGI (MOLT-4 leukemia): > 100 µM | GI50 (RXF 393 renal): > 100 µM | TGI (RXF 393 renal): > 100 µM | GI50 (OVCAR-5 ovarian): > 100 µM | TGI (OVCAR-5 ovarian): > 100 µM | GI50 (TK-10 renal): > 100 µM | TGI (TK-10 renal): > 100 µM | GI50 (A498 renal): > 100 µM | TGI (A498 renal): > 100 µM | GI50 (MDA-MB-435): > 100 µM | TGI (MDA-MB-435): > 100 µM | GI50 (OVCAR-4 ovarian): 75.1 µM | TGI (OVCAR-4 ovarian): > 100 µM | GI50 (RPMI-8226 leukemia): 28.9 µM | TGI (RPMI-8226 leukemia): > 100 µM | GI50 (SK-OV-3 ovarian): > 100 µM | TGI (SK-OV-3 ovarian): > 100 µM | GI50 (EKVX NSCLC): > 100 µM | TGI (EKVX NSCLC): > 100 µM | GI50 (OVCAR-8 ovarian): > 100 µM | TGI (OVCAR-8 ovarian): > 100 µM | GI50 (SK-MEL-2 melanoma): 25 µM | TGI (SK-MEL-2 melanoma): 56.4 µM | GI50 (SN12C renal): > 100 µM | TGI (SN12C renal): > 100 µM | GI50 (U251 CNS): > 100 µM | TGI (U251 CNS): > 100 µM | GI50 (MDA-MB-231 breast): > 100 µM | TGI (MDA-MB-231 breast): > 100 µM | GI50 (HCT-15 colon): > 100 µM | TGI (HCT-15 colon): > 100 µM | GI50 (NCI/ADR-RES ovarian): > 100 µM | TGI (NCI/ADR-RES ovarian): > 100 µM | GI50 (MALME-3M melanoma): > 100 µM | TGI (MALME-3M melanoma): > 100 µM | GI50 (NCI-H226 lung): > 100 µM | TGI (NCI-H226 lung): > 100 µM | GI50 (CAKI-1 renal): > 100 µM | TGI (CAKI-1 renal): > 100 µM | GI50 (SNB-19 CNS): > 100 µM | TGI (SNB-19 CNS): > 100 µM | GI50 (NCI-H522 lung): 20 µM | TGI (NCI-H522 lung): 48 µM | GI50 (PC-3 prostate): > 100 µM | TGI (PC-3 prostate): > 100 µM | GI50 (HOP-92 NSCLC): > 100 µM | TGI (HOP-92 NSCLC): > 100 µM | GI50 (LOX IMVI melanoma): 76.5 µM | TGI (LOX IMVI melanoma): > 100 µM | GI50 (K-562 leukemia): 75.1 µM | TGI (K-562 leukemia): > 100 µM | GI50 (HCC-2998 colon): 47.3 µM | TGI (HCC-2998 colon): > 100 µM | GI50 (OVCAR-3 ovarian): 20.9 µM | TGI (OVCAR-3 ovarian): 50.9 µM | GI50 (NCI-H460 lung): > 100 µM | TGI (NCI-H460 lung): > 100 µM | GI50 (ACHN renal): > 100 µM | TGI (ACHN renal): > 100 µM | GI50 (COLO 205 colon): > 100 µM | TGI (COLO 205 colon): > 100 µM | GI50 (MCF7 breast): 43.4 µM | TGI (MCF7 breast): > 100 µM | GI50 (HL-60(TB) leukemia): > 100 µM | TGI (HL-60(TB) leukemia): > 100 µM | GI50 (T-47D breast): 30.5 µM | TGI (T-47D breast): > 100 µM | GI50 (DU-145 prostate): > 100 µM | TGI (DU-145 prostate): > 100 µM | GI50 (UACC-62 melanoma): 83.9 µM | TGI (UACC-62 melanoma): > 100 µM | GI50 (HS 578T breast): > 100 µM | TGI (HS 578T breast): > 100 µM | GI50 (SR leukemia): 31.7 µM | TGI (SR leukemia): > 100 µM
